# Assay results as given in patent US8691801B2, “Use of manzamine compounds in anti-cancer therapeutic regimens” (Florida Atlantic University Board of Trustees, priority 2006, dated 2014).
# Like-named read-outs stand apart in the source and are kept apart here.
# Assays:
# [1] = tested on: AsPC-1 cells; assay: Morphological changes (cell dissociation) induced in AsPC-1 cells; type: cell-based
# Protocol: Cell Culture Conditions for the AsPC-1 pancreatic adenocarcinoma cell line. AsPC-1, a pancreatic adenocarcinoma cell line, was obtained from ATCC, grown, aliquotted and frozen stocks were maintained in liquid nitrogen. Aliquots of the stock cells were thawed and grown in RPMI-1640 supplemented with 10% Fetal Bovine Serum, 0.11 mg/ml Sodium Pyruvate, 4.5 g/L D-glucose, 18 mM HEPES Buffer, 100 U/ml penicillin G sodium, 100 μg/ml streptomycin sulfate, 0.25 μg/ml amphotericin B, 2 mM L-glutamine and 50 μg/ml gentamicin (Complete RPMI). Cells were maintained in a humidified incubator at 37° C. and 5% CO2.
# An observation was made that inhibiting the constitutive activation of MEK abrogates cell dissociation (Tan, X. et al., 2004 “Involvement of the mitogen-activated protein kinase kinase 2 in the induction of cell dissociation in pancreatic cancer” Int J Oncol 24(1):65-73), a precursor step in metastasis.
# [2] = tested on: AsPC-1 cells; assay: Cell viability assay (MTT); type: cell-based; conditions: pancreatic cancer cells
# Protocol: Cell viability assays. A 3-[4,5-Dimethyl-2-thiazolyl]-2,5-diphenyl-2H-tetrazolium bromide (MTT) based assay was used to determine cell viability. […] Cells were allowed to adhere for 24 hours. […] Treatment consisted of 5 μM or 50 μM of Manzamine A, media alone, media with methanol, or 20 μg/ml U0126. […] After this incubation, 75 μl 5 mg/ml MTT were added to each well. […] The plates were shaken for 15 minutes. […] The resulting absorbencies were plotted using Microsoft Excel.
# [3] = tested on: AsPC-1 cells; type: cell-based
# Source text: In Vitro Cell Invasion Assay. The invasiveness of AsPC-1 cells alone, treated with our test compounds or treated with U0126 as a positive control will be evaluated in 24-well transwell chambers, as described by Fu et al. “Effects of raf kinase inhibitor protein expression on suppression of prostate cancer metastasis”. […] Briefly, the upper and lower culture compartments of each well are separated by polycarbonate membranes (8-μm pore size). To determine baseline migration, 2.5×10^4 cells in 0.5 mL of complete medium containing 5% FBS are placed into the upper compartment of uncoated wells (BD Discovery Labware, San Diego, Calif.), and 0.75 mL of complete medium containing 10% FBS are placed into the lower compartment. In parallel, to assess the ability of the same cells to penetrate a collagen matrix, the experiment is repeated using upper compartments coated with 100 μg/cm^2 of collagen matrix (BD Discovery Labware, San Diego, Calif.). The transwell chambers are incubated for 24 hours at 37 ° C. in 95% air and 5% CO2. Cell penetration through the membrane is detected by staining the cells on the porous membrane with a Diff-Quik stain kit' observing under the microscopic and capturing images with a digital camera.
# [4] = tested on: AsPC-1 cells; assay: TRAIL induced apoptosis (MTT readout); conditions: 10 μM manzamine A, 48 hours, without TRAIL
# Protocol: (§1) TRAIL induced apoptosis. 12,000 AsPC-1 cells were plated on a 96-well tissue culture plate at a volume of 200 μl/well, allowing for twelve replicate wells per treatment. Cells were allowed to adhere for 24 hours. At the end of this incubation, 100 μl of medium were removed from each test well and 100 μl of medium containing treatment were added. Treatment consisted of media alone, media with methanol, 10 μM Manzamine A or 20 μg/m1 U0126. The cells were then incubated for 48 hours at 37° C. and 5% CO2. After this incubation, half of the wells of each treatment were incubated with 100 ng/ml Super Killer TRAIL (Alexis, San Diego, Calif.) for 18 hours at 37° C. and 5% CO2. At the end of this incubation, 75 μl of a 5 mg/ml MTT solution were added to each well. The cells were then incubated for 3 hours at 37° C. The plates were centrifuged for 10 minutes at 800 rpm. The supernatant was removed and 200 μl acidified isopropyl alcohol (1:500 solution of hydrochloric acid to isopropanol) were added to each well. The plates were shaken for 15 minutes. The absorbencies of these solutions were measured at 570 nm with a plate reader (NOVOstar, BMG Labtech Inc., Durham, N.C.). The resulting absorbencies were plotted using Microsoft Excel. […]
# [5] = tested on: AsPC-1 cells
# Protocol: as §1
Structure (SMILES),"abrogation of cell dissociation ([1]; AsPC-1 cells treated 48 hours with 1.25, 2.5, 5, 10 μM Manzamine A, microscopy)","abrogation of cell dissociation, dose dependence ([1]; AsPC-1 cells, 48 hours, 5 and 10 μM dose compared with 1.25 and 2.5 μM)","dose needed for similar effects relative to U0126 ([1]; effects on cell dissociation, migration and TRAIL resistance, manzamine A vs U0126)",cytotoxicity at small doses [2],"prevention of cell migration ([3]; AsPC-1 cells treated 48 hours, 5 and 10 μM Manzamine A, transwell, collagen matrix)",cytotoxicity of treatment alone [4],prevention of cell migration [3],cytotoxicity of treatment alone [5]
"O[C@]12C=C(c3nccc4c3[nH]c3ccccc34)[C@@H]3CCN(CCCC/C=C\CC1)C[C@@]31CC3/C=C\CCCCN3[C@H]12 (some centres unmarked) [Manzamine A, manzamine A]",caused abrogation of cell dissociation similar to that caused by pMEK inhibitors,stronger at the 5 and 10 μM dose,a fifth of the dose needed for U0126,little cytotoxicity,prevented cell migration similar to that caused by the pMEK inhibitor U0126,induced some cytotoxicity,,
"N#CC(=C(/N)Sc1ccccc1N)/C(C#N)=C(\N)Sc1ccccc1N [U0126, reference compound]",,,,,,,prevented cell migration,induced some cytotoxicity
